Data taken from PMC8951032, “Study of Biological Activities and ADMET-Related Properties of Novel Chlorinated N-arylcinnamamides” (International Journal of Molecular Sciences, 2022).
Converted amounts (≈) assume the structure as drawn. Read-outs that look alike come from different tables or passages of the source.

Tests used:
[1] = Lipophilicity determination by RP-HPLC (log k, log D); assay type: physicochemical; settings: for log k: MeOH 72%/H2O 28%; for log D6.5: MeOH 72%/acetate buffered saline pH 6.5; for log D7.4: MeOH 72%/acetate buffered saline pH 7.4
Method: In addition to the mentioned ADME profile, it is responsible for interactions with biological targets. Lipophilicity is recognized as one of the most important parameters influencing ADME and bioactivity and is also part, e.g., of Lipinski’s Rule of Five (Ro5). This thermodynamic parameter describing the molecule’s affinity for an aqueous or relatively lipophilic environment can be characterized by the logarithm of the partition coefficient (log P). In this study, lipophilicity was measured by reversed-phase high-performance liquid chromatography (RP-HPLC) under isocratic conditions with methanol as the organic modifier in the aqueous mobile phase and the logarithm of the capacity factor k was calculated, which is used as the lipophilicity index converted to the log P scale. In addition to the log k values, the logarithm of the distribution coefficient DpH at pH 6.5 and 7.4 was determined to clarify the behavior of the compounds under physiological conditions and possible ionization. Instead of water, a buffer of suitable pH was used as part of the mobile phase. In addition to the above-mentioned experimental methods, commercially available ChemBioDraw Ultra 13.0 and ACD/Percepta ver. 2012 programs were used to calculate the lipophilicity values of all prepared compounds.
A HPLC separation module Waters Alliance 2695 XE equipped with a Waters Dual Absorbance Detector 2486 (Waters Corp., Milford, MA, USA) was used. A chromatographic column Symmetry® C18 5 μm, 4.6 × 250 mm, Part No. W21751W016 (Waters Corp., Milford, MA, USA) was used. The HPLC separation process was monitored by Empower® 3 Chromatography Manager Software (Waters Corp.). Isocratic elution by a mixture of MeOH p.a. (72%) and H2O-HPLC Mili-Q grade (28%) as a mobile phase was used for the determination of capacity factor k. Isocratic elution by a mixture of MeOH p.a. (72%) and acetate buffered saline (pH 7.4 and pH 6.5) (28%) as a mobile phase was used for the determination of distribution coefficient expressed as D7.4 and D6.5. The total flow of the column was 1.0 mL/min, injection 20 μL, column temperature 40 °C, and sample temperature 10 °C. The detection wavelength of 210 nm was chosen. A KI methanolic solution was used for the determination of the dead times (tD). Retention times (tR) were measured in minutes. The capacity factors k were calculated according to the formula k = (tR − tD)/tD, where tR is the retention time of the solute, and tD is the dead time obtained using an unretained analyte. The distribution coefficients DpH were calculated according to the formula DpH = (tR − tD)/tD. Each experiment was repeated three times.

[2] = test system: S. aureus, MRSA, E. faecalis, VRE, M. smegmatis, M. marinum; assay: In vitro antimicrobial screening, all tested strains; assay type: cell-based; settings: antibacterial/antimycobacterial screening
[3] = test system: methicillin-resistant S. aureus (MRSA) 63718; assay: In vitro antistaphylococcal activity, microtitration broth MIC; assay type: cell-based; settings: Staphylococcus aureus
[4] = test system: methicillin-resistant S. aureus SA 3202; assay: as above; assay type: cell-based; settings: Staphylococcus aureus
[5] = test system: vancomycin-resistant E. faecalis (VRE) 725B; assay: In vitro antienterococcal activity, microtitration broth MIC; assay type: cell-based, Enterococcus faecalis; settings: 24 h
[6] = test system: methicillin-resistant S. aureus SA 630; assay: In vitro antistaphylococcal activity, microtitration broth MIC; assay type: cell-based; settings: Staphylococcus aureus
[7] = test system: Staphylococcus aureus ATCC 29213; assay: as above; assay type: cell-based; settings: Staphylococcus aureus

Structure (SMILES)	log k [1]	log D6.5 [1]	log D7.4 [1]	antimicrobial activity (in words) [2]	MIC ([3]; 24 h, MRSA 63718, read-out: log(1/MIC [M]) MRSA1 (converted))	MIC ([3]; MRSA 63718, 24 h, read-out: MIC MRSA1)	MIC ([4]; 24 h, MRSA SA 3202, read-out: log(1/MIC [M]) MRSA3 (converted))	MIC ([4]; MRSA SA 3202, 24 h, read-out: MIC MRSA3)	MIC ([5]; read-out: MIC VRE3)	MIC ([5]; read-out: log(1/MIC [M]) VRE3 (converted))	MIC ([6]; 24 h, MRSA SA 630, read-out: log(1/MIC [M]) MRSA2 (converted))	MIC ([6]; MRSA SA 630, 24 h, read-out: MIC MRSA2)	MIC ([7]; ATCC29213, 24 h, S. aureus ATCC 29213, read-out: log(1/MIC [M]) SA (converted))	MIC ([7]; ATCC29213, S. aureus ATCC 29213, 24 h, read-out: MIC SA)
O=C(/C=C/c1ccc(Cl)cc1)Nc1ccc(OC(F)(F)F)cc1Br [1r, (2E)-N-[2-Bromo-4-(trifluoromethoxy)phenyl]-3-(4-chlorophenyl)prop-2-enamide]	1.0278	1.0236	1.0284	total loss of any effect										
O=C(/C=C/c1ccc(Cl)c(Cl)c1)Nc1ccc(OC(F)(F)F)cc1Br [2r, (2E)-N-[2-Bromo-4-(trifluoromethoxy)phenyl]-3-(3,4-dichlorophenyl)prop-2-enamide]	1.2065	1.2373	1.2178	total loss of any effect										
CC1(C)S[C@@H]2[C@H](NC(=O)[C@H](N)c3ccccc3)C(=O)N2[C@H]1C(=O)O [AMP, ampicillin, reference compound]					4.57e-05 M (≈ 16 µg/mL)	4.58e-05 M (≈ 16 µg/mL)	> 4.57e-05 M	> 4.58e-05 M	5.72e-06 M (≈ 2 µg/mL)	5.75e-06 M (≈ 2.01 µg/mL)	> 4.57e-05 M	> 4.58e-05 M	5.75e-06 M (≈ 2.01 µg/mL)	5.72e-06 M (≈ 2 µg/mL)
